Measured values published in patent US20130143884A1, “4-[2-[ [5-METHYL-1-(2-NAPHTALENYL)-1H-PYRAZOL-3-YL]OXY]ETHYL] MORPHOLINE SALTS” (priority 2009, published 2013).
Where “and” joins values, the source holds several entries; their conditions need not be identical. Equal values may be shown once. Where a name gives a salt, the structure may show the parent alone. Read-outs that look alike come from different tables or passages of the source.

Experiments:
pKa = type: physicochemical
sigma 1 (σ-1) site = sigma 1 (σ-1) site (Homo sapiens, UniProt Q99720); details: cited from earlier work
[1] = treatment and prevention of chronic and acute pain, particularly neuropathic pain; reported in WO 2006/021462; cited from earlier work
[2] = Solubility of the salts in crystallization screening solvents; type: physicochemical; details: initial screening solvents; for the maleate except ethyl acetate
Procedure: The product obtained in the initial preparation was solved in the minimum amount of crystallization solvent at its boiling temperature or at a maximum of 75° C. […] The mother liquors were cooled to room temperature and kept for 24 hours.
Initially, a crystallization screening of compound 63 with the ten counterions depicted in table 2 was performed, at a 40 mg scale, in the following ten solvents: acetone, ethyl acetate, chloroform, N,N-dimethylformamide, methanol, ethanol, isopropanol, 2-butanol, acetonitrile and tetrahydrofuran. The procedure started with the preparation of equimolar mixtures, from known concentration methanol dissolutions, of compound 63 and the different acid counterions. The resulting crude, after the methanol evaporation, was crystallized from the hot solvents formerly mentioned. Different crystallization strategies were used depending on the solubility of each acid and compound 63 mixture, and therefore the solids were obtained using different procedures. For some acids, the mixture was not soluble in the hot crystallization solvent, obtaining a slurry solid. In other cases, the solid crystallized during room temperature cooling of the solution, or after several days at 4° C. or at −18° C. Finally, in some crystallization attempts, the solid was obtained after slow evaporation of the solvent at room temperature. […]

[3] = Descriptive solubility in water and solvents; type: physicochemical
[4] = Dissolution and absorption profile in vivo; details: compared with its related base
[5] = Pharmacokinetics in rats after single oral administration (plasma, HPLC with fluorescence detection); type: in vivo; details: Wistar Hannover; rat plasma, single oral 25 mg/kg (expressed as compound 63)
Procedure: The pharmacokinetics of Example 1 in Wistar Hannover rats following a single oral administration of 25 mg/kg (expressed as compound 63) was tested. For this purpose, plasma samples were collected at different time points and analyzed using HPLC (High pressure liquid chromatography) method with fluorescence detection.
Two groups were used in this test. Group 1 received vehicle and Group 2 received Example 1 at 25 mg/kg with an administration volume of 10 mL/kg.
Blood samples were extracted from the retro-orbital zone at the following time points: pre-dose, 15 min, 30 min, 1 h, 1.5 h, 2 h, 3 h, 4 h, 5 h, 6 h, 8 h and 24 h. Blood was then transferred into heparin-containing plastic tubes. Plasma was obtained by centrifugation at approximately 3000 rpm for 10 min at 4° C. These plasma samples were labeled and frozen at a temperature of approximately −65° C. until analysis.
Samples were analyzed by a previously validated analytical method. Briefly, rat plasma samples were thawed at room temperature and centrifuged at 3000 rpm for 10 min at approximately 4° C. 300 μl of plasma samples were placed into vials and spiked with 30 μl of internal standard working solution. The vials were capped and mixed thoroughly. […]
The peaks corresponding to Example 1 and its internal standard were quantified by fluorescence detection at an excitation wavelength of 260 nm and an emission wavelength of 360 nm. […]
The peak plasma concentration values (Cmax) and the time to reach such concentration (tmax) were obtained directly from the experimental data. The elimination constant (kel) was calculated by linear regression of the last phase of the curve (log concentration vs. time). The elimination half-life (t1/2) was determined with the expression t1/2=0.693/kel. The area under the curve of plasma levels vs. time from zero to the last time determined (AUC0-t) was calculated be means of the trapezoidal method. The area under the curve of plasma levels vs time from zero to infinity (AUC0-∞) was calculated with the expression: AUC0-∞=AUC0-t+Clast/kel, where Clast is the plasma concentration at the last time measured.

[6] = Thermodynamic solubility at pH 7.4; type: physicochemical
Procedure: General protocol for thermodynamic solubility at pH 7.4 and pH 2 is described below.
A) Thermodynamic Solubility at pH 7.4
Buffer phosphates pH 7.4 was prepared as follows: • A solution 25 mM of Na2HPO4.12H2O (for 1 l of water, weight 8.96 g) was prepared • A solution 25 mM de KH2PO4 (for 1 l of water weight 3.4 g) was prepared. • 812 ml of disodium phosphate solution+182 ml of potassium phosphate solution were mixed and pH checked according was 7.4.
Samples were equilibrated using: • Stirrer Thermomixer Control of Eppendorf a 25° C. y 1250 rpm • pHmeter with combined electrode of pH semimicro
2 mg in an HPLC vial (by duplicate) was weight and 1 ml of buffer was added. The vial was maintained at 25° C., in the stirrer Thermomixer Comfort., during 24 hours. Centrifugation at 4000 rpm followed during 15 min.
The resulting upper layer was collected with a glass pipette and transferred to the HPLC vials. Again centrifuged and the injector programmed at 2.7 mm high.
Sol.A: 2 mg in 5 ml methanol (400 ug/ml)
Sol.B: 1 ml Sol.A to 10 ml with methanol (40 ug/ml)
Sol.C: 5 ml Sol.B to 50 ml with methanol (4 ug/ml)
Sol.D: 4 ml Sol.C to 10 ml with methanol (1.6 ug/ml)
Sol.E: 5 ml Sol.D to 25 ml with methanol (0.32 ug/ml)
10 μl of all prepared solutions were injected, beginning with the more diluted standard. Blanks were also injected, for checking the absence of contamination.
The standard calibration curve was done (see FIG. 29). Consider Y=area y X=μg injected standard
10 μl of problem compound solution were injected, by duplicate and the average peak area (if quantifiable) interpolated in the standard curve (see Tables 9, 10 and 11 and example below).
Chromatographic Conditions • Column: XBridge C18 (or similar) 2.5 μm 4.6×50 mm • Temperature: 35° C. • Mobile phase: ACN/ammonium bicarbonate 10 mM. • Gradient: 0-3.5 min: from 15% ACN to 95% ACN • 3.5-5 min: 95% ACN • 5-6 min: 95 a 15% ACN • 6-8 min: 15% ACN • Flow: 1.5 ml/min • Detection: around the UV absorption maximum

sigma 2 (σ-2) site = sigma 2 (σ-2) site (Homo sapiens, UniProt Q5BJF2); details: cited from earlier work
Chain of sigma 2 (σ-2) site (Q5BJF2 whole entry): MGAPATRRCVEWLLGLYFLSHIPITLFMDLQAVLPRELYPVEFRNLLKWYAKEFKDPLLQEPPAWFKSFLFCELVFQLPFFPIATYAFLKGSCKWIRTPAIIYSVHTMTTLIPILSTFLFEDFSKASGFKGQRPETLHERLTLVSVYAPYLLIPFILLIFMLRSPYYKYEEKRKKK

Chain of sigma 1 (σ-1) site (Q99720 whole entry): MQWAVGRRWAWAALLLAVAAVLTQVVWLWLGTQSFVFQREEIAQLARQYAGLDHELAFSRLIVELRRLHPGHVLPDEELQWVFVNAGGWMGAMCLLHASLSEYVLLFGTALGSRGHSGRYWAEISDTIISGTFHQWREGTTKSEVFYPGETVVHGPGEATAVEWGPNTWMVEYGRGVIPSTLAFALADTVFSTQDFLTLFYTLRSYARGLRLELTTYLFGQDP

Question: For `Cc1cc(OCCN2CCOCC2)nn1-c1ccc2ccccc2c1` [compound 63, 4-[2-[[5-methyl-1-(2-naphthalenyl)-1H-pyrazol-3-yl]oxy]ethyl]morpholine], which pKa (pKa) is on record?
Answer: The pKa was 6.7.

Question: And the Sigma-1 receptor activity (sigma 1 (σ-1) site; reported in WO 2006/021462)?
Answer: Its Sigma-1 receptor activity is “highly selective sigma-1 (σ-1) receptor antagonist”.

Question: What about the Analgesic activity [1] of the same compound?
Answer: The Analgesic activity was “strong analgesic activity”.

Question: Which “Solubility in all the solvents assayed (first set of ten solvents)” value [2] does the source give for `CCS(=O)(=O)O.Cc1cc(OCCN2CCOCC2)nn1-c1ccc2ccccc2c1` [ethanesulfonate salt] here?
Answer: Its value is greater than 200000 µg/mL.

Question: What does the source list for `Cc1cc(OCCN2CCOCC2)nn1-c1ccc2ccccc2c1` [Example 1, 4-[2-[[5-methyl-1-(2-naphthalenyl)-1H-pyrazol-3-yl]oxy]ethyl]morpholine hydrochloride]?
Answer: pKa (pKa; read-out: pKa): 6.73; Solubility in 1N hydrochloric acid ([3]; 1N hydrochloric acid): freely soluble; Solubility in 1N sodium hydroxide ([3]; 1N sodium hydroxide): practically insoluble; Solubility in acetone ([3]; acetone): slightly soluble; Solubility in dimethyl sulphoxide ([3]; dimethyl sulphoxide): freely soluble; Solubility in ethanol ([3]; ethanol): sparingly soluble; Solubility in ethyl acetate ([3]; ethyl acetate): practically insoluble; Solubility in methanol ([3]; methanol): freely soluble; Solubility in water ([3]; water): very soluble; Dissolution and absorption profile in vivo [4]: better dissolution and absorption profile in vivo than its related base; AUC(0-inf) [5]: 1250 ng·h/mL; AUC(0-t) [5]: 1220 ng·h/mL; Cmax [5]: 1.15 µg/mL; solubility thermodynamic at 24 h ([6]; aqueous buffer, thermodynamic from solid, pH=7.4, phosphate buffer 50 mM, 25° C., 24 hours): 227 µg/mL; Conc. (single injections) ([6]; pH 7.4, duplicate samples, duplicate injections, hydrochloride): 225.5 µg/mL and 229.0 µg/mL and 229.3 µg/mL and 225.3 µg/mL; Conc. Mean ([6]; pH 7.4, mean of 4 injections): 227.262 µg/mL

Question: Which “Affinity for the sigma 1 (σ-1) site” value (sigma 1 (σ-1) site) does the source give for SKF 10047 [reference compound] here?
Answer: The value was “nanomolar”.

Question: And the “Affinity for the sigma 2 (σ-2) site” value (sigma 2 (σ-2) site)?
Answer: Its value is “micromolar”.
